Experimental data taken from patent US20240246992A1, “MACROCYCLIC LRRK2 KINASE INHIBITORS” (LES LABORATOIRES SERVIER, priority 2021, published 2024).

target: human recombinant LRRK2 protein (Homo sapiens, UniProt Q5S007); assay: LRRK2 kinase activity assay (ADP-Glo, LRRKtide peptide); assay type: biochemical; settings: human recombinant LRRK2 wt, LRRKtide peptide and ATP, 1 h at 37° C.
Method in brief: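 ADP-Glo luminescence read-out of a peptide assay: compound, ATP and LRRKtide substrate combined with recombinant human LRRK2 and incubated at 37 °C for 1 h. Ten-point data, N=2, curve-fitted to IC50.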

Chain of human recombinant LRRK2 protein (Q5S007 whole entry): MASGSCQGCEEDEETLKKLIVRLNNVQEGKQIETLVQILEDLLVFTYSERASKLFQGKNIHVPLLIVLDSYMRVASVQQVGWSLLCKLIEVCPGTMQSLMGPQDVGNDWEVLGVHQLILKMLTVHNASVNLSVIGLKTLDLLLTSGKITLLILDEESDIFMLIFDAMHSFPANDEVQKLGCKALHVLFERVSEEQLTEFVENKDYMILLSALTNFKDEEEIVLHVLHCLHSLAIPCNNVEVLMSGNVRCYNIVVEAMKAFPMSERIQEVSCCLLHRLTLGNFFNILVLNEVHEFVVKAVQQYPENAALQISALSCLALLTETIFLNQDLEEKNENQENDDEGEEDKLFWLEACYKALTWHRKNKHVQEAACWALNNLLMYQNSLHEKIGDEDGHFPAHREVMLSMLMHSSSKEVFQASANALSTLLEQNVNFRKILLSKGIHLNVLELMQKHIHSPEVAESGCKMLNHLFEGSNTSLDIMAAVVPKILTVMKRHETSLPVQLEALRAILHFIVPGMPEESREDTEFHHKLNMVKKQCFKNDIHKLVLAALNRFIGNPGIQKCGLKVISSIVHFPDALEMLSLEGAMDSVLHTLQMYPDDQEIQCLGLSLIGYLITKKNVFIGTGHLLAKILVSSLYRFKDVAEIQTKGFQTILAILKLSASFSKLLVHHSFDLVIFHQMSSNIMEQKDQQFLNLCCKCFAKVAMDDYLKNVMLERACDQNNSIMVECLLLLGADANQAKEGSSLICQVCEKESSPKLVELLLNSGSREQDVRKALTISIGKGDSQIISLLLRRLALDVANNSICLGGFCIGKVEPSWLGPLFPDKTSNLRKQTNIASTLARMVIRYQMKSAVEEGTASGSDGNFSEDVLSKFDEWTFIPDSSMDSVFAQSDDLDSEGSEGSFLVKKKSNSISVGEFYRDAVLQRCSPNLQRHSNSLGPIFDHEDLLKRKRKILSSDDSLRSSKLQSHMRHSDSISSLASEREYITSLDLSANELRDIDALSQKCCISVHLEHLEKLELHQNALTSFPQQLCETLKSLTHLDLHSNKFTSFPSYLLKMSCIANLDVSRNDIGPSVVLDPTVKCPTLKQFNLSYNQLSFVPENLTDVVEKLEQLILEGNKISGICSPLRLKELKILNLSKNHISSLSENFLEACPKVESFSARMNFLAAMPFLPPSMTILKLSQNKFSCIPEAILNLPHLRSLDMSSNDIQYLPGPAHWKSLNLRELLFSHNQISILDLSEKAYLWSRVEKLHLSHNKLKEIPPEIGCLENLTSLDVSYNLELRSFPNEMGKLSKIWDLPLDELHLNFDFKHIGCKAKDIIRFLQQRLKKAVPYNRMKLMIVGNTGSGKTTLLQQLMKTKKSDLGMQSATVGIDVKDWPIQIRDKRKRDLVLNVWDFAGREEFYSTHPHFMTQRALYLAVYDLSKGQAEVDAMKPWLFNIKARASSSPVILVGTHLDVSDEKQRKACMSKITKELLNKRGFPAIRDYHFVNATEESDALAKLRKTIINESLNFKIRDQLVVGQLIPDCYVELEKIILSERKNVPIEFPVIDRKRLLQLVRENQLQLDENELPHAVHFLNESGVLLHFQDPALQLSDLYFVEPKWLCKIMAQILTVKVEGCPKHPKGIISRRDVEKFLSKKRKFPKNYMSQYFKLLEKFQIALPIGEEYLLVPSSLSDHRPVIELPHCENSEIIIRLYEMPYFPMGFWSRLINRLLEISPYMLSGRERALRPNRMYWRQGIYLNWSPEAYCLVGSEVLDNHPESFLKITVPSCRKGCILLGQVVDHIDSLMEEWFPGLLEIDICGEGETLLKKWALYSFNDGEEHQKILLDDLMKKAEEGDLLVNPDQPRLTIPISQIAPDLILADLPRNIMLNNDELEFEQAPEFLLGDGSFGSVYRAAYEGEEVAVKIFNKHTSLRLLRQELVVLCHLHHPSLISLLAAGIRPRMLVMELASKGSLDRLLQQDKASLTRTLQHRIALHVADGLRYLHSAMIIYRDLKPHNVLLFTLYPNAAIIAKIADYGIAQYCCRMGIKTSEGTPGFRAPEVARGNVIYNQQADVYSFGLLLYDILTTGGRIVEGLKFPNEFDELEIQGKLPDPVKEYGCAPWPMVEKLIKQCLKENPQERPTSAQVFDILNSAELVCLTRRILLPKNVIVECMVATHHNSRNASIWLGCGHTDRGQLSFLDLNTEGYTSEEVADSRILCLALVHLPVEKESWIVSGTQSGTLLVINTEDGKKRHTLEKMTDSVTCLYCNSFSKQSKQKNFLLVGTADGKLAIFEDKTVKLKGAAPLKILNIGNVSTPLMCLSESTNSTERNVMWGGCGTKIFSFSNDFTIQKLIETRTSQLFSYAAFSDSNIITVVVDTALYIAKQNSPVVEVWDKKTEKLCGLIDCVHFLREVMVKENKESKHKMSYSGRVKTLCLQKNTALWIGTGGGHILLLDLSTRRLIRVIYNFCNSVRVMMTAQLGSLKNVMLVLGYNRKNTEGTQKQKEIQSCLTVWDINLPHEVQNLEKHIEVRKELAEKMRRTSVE

| IC50 | SMILES |
| --- | --- |
| < 100 nM | C[C@H]1COc2ccc3[nH]nc(c3c2)-c2cccc(c2)OCC(=O)N[C@@H]1C [Example 215, (11R,12R)-11,12-dimethyl-7,14-dioxa-10,19,20-triazatetracyclo[13.5.2.1^2,6.0^18,21]tricosa-1(20),2,4,6(23),15(22),16,18(21)-heptaen-9-one] |
| < 100 nM | C[C@@H]1NC(=O)COc2cccc(c2)-c2n[nH]c3ccc(cc23)OC[C@H]1F [Example 183, (11S,12S)-12-fluoro-11-methyl-7,14-dioxa-10,19,20-triazatetracyclo[13.5.2.1^2,6.0^18,21]tricosa-1(20),2,4,6(23),15,17,21-heptaen-9-one] |
| < 10 nM | O=C1COc2nccc(n2)-c2n[nH]c3ccc(cc23)OCCCN1 [Example 196, 7,14-dioxa-5,10,19,20,23-pentaazatetracyclo[13.5.2.1^2,6.0^18,21]tricosa-1(20),2(23),3,5,15(22),16,18(21)-heptaen-9-one] |
| > 1000 nM | C[C@@H]1COCCOCCc2nc(cn2C)-c2n[nH]c3ccc(cc23)O1 [Example 76, (13R)-4,13-dimethyl-8,11,14-trioxa-4,19,20,23-tetraazatetracyclo[13.5.2.1^2,5.0^18,21]tricosa-1(20),2,5(23),15(22),16,18(21)-hexaene] |
| < 100 nM | C[C@H]1COCCOCCn2ncc(n2)-c2n[nH]c3ccc(cc23)O1 [Example 81, (13S)-13-methyl-8,11,14-trioxa-4,5,19,20,23-pentaazatetracyclo[13.5.2.1^2,5.0^18,21]tricosa-1(20),2(23),3,15(22),16,18(21)-hexaene] |
| < 100 nM | CN1CCCOc2ccc3[nH]nc(c3c2)-c2cncc(c2)OC(C)(C)C1=O [Example 197, 8,8,10-trimethyl-7,14-dioxa-4,10,19,20-tetraazatetracyclo[13.5.2.1^2,6.0^18,21]tricosa-1(20),2(23),3,5,15(22),16,18(21)-heptaen-9-one] |
| < 100 nM | c1ncc2cc1CCOCCOCCOc1ccc3[nH]nc-2c3c1 [Example 68, 9,12,15-trioxa-4,20,21-triazatetracyclo[14.5.2.1^2,6.0^19,22]tetracosa-1(21), 2(24),3,5,16(23),17,19(22)-heptaene] |
| < 100 nM | COC1CNC(=O)COc2cccc(c2)-c2n[nH]c3ccc(cc23)OC1 (centres unmarked) [Example 170, 12-methoxy-7,14-dioxa-10,19,20-triazatetracyclo[13.5.2.1^2,6.0^18,21]tricosa-1(20),2(23),3,5,15,17,21-heptaen-9-one] |
| < 10 nM | Cc1ccc2cc1OCC(=O)NCCCOc1ccc3[nH]nc-2c3c1 [Example 140, 5-methyl-7,14-dioxa-10,19,20-triazatetracyclo[13.5.2.1^2,6.0^18,21] tricosa-1(20),2,4,6(23),15,17,21-heptaen-9-one] |
| < 100 nM | CN1CCCNc2ccc3[nH]nc(c3c2)-c2cncc(c2)OCC1=O [Example 190, 10-methyl-7-oxa-4,10,14,19,20-pentaazatetracyclo[13.5.2.1^2,6.0^18,21]tricosa-1(20),2,4,6(23),15,17,21-heptaen-9-one] |
| < 10 nM | O=C1COc2cc(cc(C3CCOC3)c2)-c2n[nH]c3ccc(cc23)OCCCN1 (centres unmarked) [Example 214, 4-(oxolan-3-yl)-7,14-dioxa-10,19,20-triazatetracyclo[13.5.2.1^2,6.0^18,21]tricosa-1(20),2(23),3,5,15,17,21-heptaen-9-one] |
| < 10 nM | CC1(C)COCCCOc2ccc3[nH]nc(c3c2)-c2cnn(c2)C1 [Example 31, 7,7-dimethyl-9,13-dioxa-4,5,18,19-tetraazatetracyclo[12.5.2.1^2,5.0^17,20] docosa-1(19),2(22),3,14(21),15,17(20)-hexaene] |
| < 100 nM | FCC1CCOc2ccc3[nH]nc(c3c2)-c2cccc(c2)OCCN1 (centres unmarked) [Example 155, 11-(fluoromethyl)-7,14-dioxa-10,19,20-triazatetracyclo [13.5.2.1^2,6.0^18,21]tricosa-1(20),2,4,6(23),15,17,21-heptaene] |
| < 10 nM | C[C@@H]1CCOC[C@H](C)Oc2cncc(c2)-c2n[nH]c3ccc(cc23)O1 [Example 22, (8S,13R)-8,13-dimethyl-7,10,14-trioxa-4,19,20-triazatetracyclo[13.5.2.1^2,6.0^18,21]tricosa-1(20),2(23),3,5,15(22),16,18(21)-heptaene] |
| < 100 nM | C[C@@H]1COCCCCn2ncc(n2)-c2n[nH]c3ccc(cc23)O1 [Example 130, (12R)-12-methyl-10,13-dioxa-4,5,18,19,22-pentaazatetracyclo[12.5.2.1^2,5.0^17,20] docosa-1(19),2(22),3,14(21),15,17(20)-hexaene] |
| < 10 nM | C[C@H]1CCOCCCn2cc(cn2)-c2n[nH]c3ccc(cc23)O1 [Example 32, (12S)-12-methyl-9,13-dioxa-4,5,18,19-tetraazatetracyclo[12.5.2.1^2,5.0^17,20] docosa-1(19),2(22),3,14(21),15,17(20)-hexaene] |

| IC50 | SMILES |
| --- | --- |
| < 10 nM | CC1(C)Oc2cncc(c2)-c2n[nH]c3ccc(cc23)OCCCNC1=O [Example 201, 8,8-dimethyl-7,14-dioxa-4,10,19,20-tetraazatetracyclo [13.5.2.1^2,6.0^18,21]tricosa-1(20),2(23),3,5,15,17,21-heptaen-9-one] |
| < 100 nM | O=C1COc2cccc(c2)-c2n[nH]c3ccc(cc23)OCCC(CF)N1 (centres unmarked) [Example 154, 11-(fluoromethyl)-7,14-dioxa-10,19,20-triazatetracyclo [13.5.2.1^2,6.0^18,21]tricosa-1(20),2,4,6(23),15,17,21-heptaen-9-one] |
| < 1000 nM | C[C@@H]1CNCCO[C@@H](C)c2cncc(c2)-c2n[nH]c3ccc(cc23)O1 (single isomer, unassigned) [Example 234, (7S or 7R,13R)-7,13-dimethyl-8,14-dioxa-4,11,19,20-tetraazatetracyclo[13.5.2.1^2,6.0^18,21]tricosa-1(20),2(23),3,5,15(22),16,18(21)-heptaene] |
| < 100 nM | CC1Oc2cncc(c2)-c2n[nH]c3ccc(cc23)OCCCN(C)C1=O (centres unmarked) [Example 160, 8,10-dimethyl-7,14-dioxa-4,10,19,20-tetraazatetracyclo [13.5.2.1^2,6.0^18,21]tricosa-1(20),2,4,6(23),15,17,21-heptaen-9-one] |
| < 10 nM | O=C1COc2cc(cc(C(F)(F)F)c2)-c2n[nH]c3ccc(cc23)OCCCN1 [Example 185, 4-(trifluoromethyl)-7,14-dioxa-10,19,20-triazatetracyclo [13.5.2.1^2,6.0^18,21]tricosa-1(20),2,4,6(23),15,17,21-heptaen-9-one] |
| < 100 nM | C[C@H]1CCNC[C@H](C)Oc2cncc(c2)-c2n[nH]c3ccc(cc23)O1 (single isomer, unassigned) [Example 230, (8S or 8R,13S)-8,13-dimethyl-7,14-dioxa-4,10,19,20-tetraazatetracyclo[13.5.2.1^2,6.0^18,21]tricosa-1(20),2,4,6(23),15(22),16,18(21)-heptaene] |
| < 10 nM | C[C@@H]1CCOC[C@H](C)Oc2ccc3[nH]nc(c3c2)-c2ccnc(n2)O1 [Example 53, (8R,13S)-8,13-dimethyl-7,11,14-trioxa-5,19,20,23-tetraazatetracyclo[13.5.2.1^2,6.0^18,21]tricosa-1(20),2(23),3,5,15(22),16,18(21)-heptaene] |
| < 10 nM | C[C@H]1COCCOCCn2cc(cn2)-c2n[nH]c3ccc(cc23)O1 [Example 24, (13S)-13-methyl-8,11,14-trioxa-4,5,19,20-tetraazatetracyclo[13.5.2.1^2,5.0^18,21]tricosa-1(20),2(23),3,15(22),16,18(21)-hexaene] |
| < 10 nM | c1cc2[nH]nc3c2cc1OCCCCCOCCn1cc-3cn1 [Example 108, 8,14-dioxa-4,5,19,20-tetraazatetracyclo[13.5.2.1^2,5.0^18,21]tricosa-1(20),2(23), 3,15(22),16,18(21)-hexaene] |
| < 100 nM | COCC1CCOc2ccc3[nH]nc(c3c2)-c2cccc(c2)OCCN1 (single isomer, unassigned) [Example 151, (11S) or (11R)-11-(methoxymethyl)-7,14-dioxa-10,19,20-triazatetracyclo[13.5.2.1^2,6.0^18,21]tricosa-1(20),2(23),3,5,15,17,21-heptaene] |
| < 10 nM | C[C@H]1COCCOCCn2cc(cc2C#N)-c2n[nH]c3ccc(cc23)O1 [Example 72, (13S)-13-methyl-8,11,14-trioxa-5,19,20-triazatetracyclo[13.5.2.1^2,5.0^18,21] tricosa-1(20),2(23),3,15(22),16,18(21)-hexaene-4-carbonitrile] |
| < 10 nM | C[C@H]1CCn2cc(cn2)-c2n[nH]c3ccc(cc23)OCCCO1 [Example 37, (8S)-8-Methyl-9,13-dioxa-4,5,18,19-tetraazatetracyclo[12.5.2.1^2,5.0^17,20] docosa-1(19),2(22),3,14(21),15,17(20)-hexaene] |
| < 10 nM | C[C@@H]1COCCOCCn2cc(cn2)-c2n[nH]c3c(F)cc(cc23)O1 [Example 88, (13R)-17-fluoro-13-methyl-8,11,14-trioxa-4,5,19,20-tetraazatetracyclo [13.5.2.1^2,5.0^18,21]tricosa-1(20),2(23),3,15(22),16,18(21)-hexaene] |
| < 10 nM | C[C@@H]1COCC[C@H](C)Oc2ccc3[nH]nc(c3c2)-c2cncc(c2)O1 [Example 21, (8R,13S)-8,13-dimethyl-7,10,14-trioxa-4,19,20-triazatetracyclo[13.5.2.1^2,6.0^18,21]tricosa-1(20),2(23),3,5,15(22),16,18(21)-heptaene] |
| < 100 nM | C[C@@H]1COc2ccc3[nH]nc(c3c2)-c2cccc(c2)OCC(=O)N[C@H]1C [Example 168, (11S,12S)-11,12-dimethyl-7,14-dioxa-10,19,20-triazatetracyclo[13.5.2.1^2,6.0^18,21]tricosa-1(20),2(23),3,5,15(22),16,18(21)-heptaen-9-one] |
| < 100 nM | C[C@@H]1CCN(C)C(=O)C[C@H](C)n2ncc(n2)-c2n[nH]c3ccc(cc23)O1 [Example 243] |
